Assay results: ChEMBL document CHEMBL1201862, “PubChem BioAssay data set” (2004)
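Cells were grown in 96-well plates and exposed to each compound for 48 hours at five concentrations; endpoints were interpolated linearly between bracketing concentrations, or set to the highest concentration if not reached. GI50 is the concentration that inhibits growth by half.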 The source made the active and inactive calls. No stated cut-off is given here; in the data, active = GI50 up to about 1.1 µM and inactive = higher.

Columns and labels:
Test in all cases: NCI anticancer screen, dose series, 48 h
[1] = test system: PC-3
[2] = test system: A549
[3] = test system: RPMI-8226
[4] = test system: T47D
[5] = test system: MCF7
[6] = test system: OVCAR-4
[7] = test system: HCC 2998
[8] = test system: MDA-N
[9] = test system: HOP-92
[10] = test system: NCI-H226
[11] = test system: BT-549
[12] = test system: ACHN
[13] = test system: CCRF-CEM
[14] = test system: TK-10
[15] = test system: U-251
[16] = test system: OVCAR-5
[17] = test system: NCI-H460
[18] = test system: COLO 205
[19] = test system: M14
[20] = test system: SK-OV-3
[21] = test system: SNB-75
[22] = test system: A498
[23] = test system: NCI/ADR-RES
[24] = test system: LOX IMVI
[25] = test system: MDA-MB-435
[26] = test system: SNB-19
[27] = test system: SW-620
[28] = test system: K562
[29] = test system: OVCAR-3
[30] = test system: IGROV-1
[31] = test system: 786-0
[32] = test system: SK-MEL-2
[33] = test system: HL-60
[34] = test system: UO-31
[35] = test system: NCI-H522
[36] = test system: SN12C
[37] = test system: SF-295
[38] = test system: SK-MEL-5
[39] = test system: EKVX
[40] = test system: UACC-62
[41] = test system: HCT-116
[42] = test system: SF-539
[43] = test system: MDA-MB-231
[44] = test system: KM12
[45] = test system: MOLT-4
[46] = test system: UACC-257
[47] = test system: RXF 393
[48] = test system: SF-268
[49] = test system: CAKI-1
[50] = test system: HOP-62
[51] = test system: NCI-H23
[52] = test system: Hs-578T
[53] = test system: OVCAR-8
[54] = test system: HT-29
[55] = test system: HCT-15
[56] = test system: Malme-3M
[57] = test system: SK-MEL-28
[58] = test system: DU-145

In the case of O=c1oc2ccc(-n3c(=O)c4ccccc4c4ccccc4c3=O)cc2c2ccccc12, the GI50 [1] is reported as > 100 µM (inactive), the GI50 [2] is reported as > 100 µM (inactive) and the GI50 [3] is reported as > 100 µM (inactive). The GI50 [4] was > 100 µM (inactive), the GI50 [5] was > 100 µM (inactive) and the GI50 [6] was > 100 µM (inactive). For the same compound, the GI50 [7] was > 100 µM (inactive), the GI50 [8] was > 100 µM (inactive) and the GI50 [9] was 36.5 µM (inactive). For the same compound, the GI50 [10] was > 100 µM (inactive), the GI50 [11] was 57.1 µM (inactive) and the GI50 [12] was > 100 µM (inactive). The GI50 [13] was > 100 µM (inactive), the GI50 [14] was > 100 µM (inactive) and the GI50 [15] was 20.8 µM (inactive). The GI50 [16] was > 100 µM (inactive), the GI50 [17] was > 100 µM (inactive) and the GI50 [18] was > 100 µM (inactive). For the same compound, the GI50 [19] was > 100 µM (inactive), the GI50 [20] was > 100 µM (inactive) and the GI50 [21] was 27 µM (inactive). The GI50 [22] was > 100 µM (inactive), the GI50 [23] was > 100 µM (inactive) and the GI50 [24] was > 100 µM (inactive). For the same compound, the GI50 [25] was > 100 µM (inactive), the GI50 [26] was 37.7 µM (inactive) and the GI50 [27] was > 100 µM (inactive). For the same compound, the GI50 [28] was > 100 µM (inactive), the GI50 [29] was > 100 µM (inactive) and the GI50 [30] was > 100 µM (inactive). The GI50 [31] was 66.2 µM (inactive), the GI50 [32] was 28.3 µM (inactive) and the GI50 [33] was > 100 µM (inactive). The GI50 [34] was > 100 µM (inactive), the GI50 [35] was > 100 µM (inactive) and the GI50 [36] was > 100 µM (inactive). For the same compound, the GI50 [37] was > 100 µM (inactive), the GI50 [38] was > 100 µM (inactive) and the GI50 [39] was > 100 µM (inactive). For the same compound, the GI50 [40] was 64.6 µM (inactive), the GI50 [41] was > 100 µM (inactive) and the GI50 [42] was > 100 µM (inactive). The GI50 [43] was > 100 µM (inactive), the GI50 [44] was > 100 µM (inactive) and the GI50 [45] was > 100 µM (inactive). The GI50 [46] was > 100 µM (inactive), the GI50 [47] was 85.1 µM (inactive) and the GI50 [48] was 50 µM (inactive). For the same compound, the GI50 [49] was > 100 µM (inactive), the GI50 [50] was > 100 µM (inactive) and the GI50 [51] was > 100 µM (inactive). The GI50 [52] was 27 µM (inactive), the GI50 [53] was > 100 µM (inactive) and the GI50 [54] was > 100 µM (inactive). The GI50 [55] was > 100 µM, the GI50 [56] was > 100 µM (inactive) and the GI50 [57] was > 100 µM (inactive).

CC1C(=O)OCC2=CCN3CCC(OC(=O)C(C)C1(C)O)C23 (stereo unspecified) was tested, and the GI50 [1] was > 100 µM (inactive), the GI50 [2] was > 100 µM (inactive) and the GI50 [3] was > 100 µM (inactive). For the same compound, the GI50 [4] was > 100 µM (inactive), the GI50 [6] was > 100 µM (inactive) and the GI50 [7] was > 100 µM (inactive). The GI50 [8] was > 100 µM (inactive), the GI50 [9] was > 100 µM (inactive) and the GI50 [10] was > 100 µM (inactive). For the same compound, the GI50 [11] was > 100 µM (inactive), the GI50 [12] was > 100 µM (inactive) and the GI50 [13] was > 100 µM (inactive). The GI50 [14] was > 100 µM (inactive), the GI50 [15] was > 100 µM (inactive) and the GI50 [16] was > 100 µM (inactive). The GI50 [17] was > 100 µM (inactive), the GI50 [18] was > 100 µM (inactive) and the GI50 [19] was > 100 µM (inactive). The GI50 [58] was > 100 µM (inactive), the GI50 [20] was > 100 µM (inactive) and the GI50 [21] was > 100 µM (inactive). For the same compound, the GI50 [22] was > 100 µM (inactive), the GI50 [23] was > 100 µM (inactive) and the GI50 [24] was > 100 µM (inactive). For the same compound, the GI50 [25] was > 100 µM (inactive), the GI50 [26] was > 100 µM (inactive) and the GI50 [27] was > 100 µM (inactive). For the same compound, the GI50 [28] was > 100 µM (inactive), the GI50 [29] was > 100 µM (inactive) and the GI50 [30] was > 100 µM (inactive). For the same compound, the GI50 [31] was > 100 µM (inactive), the GI50 [32] was > 100 µM (inactive) and the GI50 [33] was > 100 µM (inactive). For the same compound, the GI50 [34] was > 100 µM (inactive), the GI50 [35] was > 100 µM (inactive) and the GI50 [36] was > 100 µM (inactive). For the same compound, the GI50 [37] was > 100 µM (inactive), the GI50 [38] was > 100 µM (inactive) and the GI50 [39] was > 100 µM (inactive). For the same compound, the GI50 [40] was > 100 µM (inactive), the GI50 [41] was > 100 µM (inactive) and the GI50 [42] was > 100 µM (inactive). For the same compound, the GI50 [43] was > 100 µM (inactive), the GI50 [44] was > 100 µM (inactive) and the GI50 [45] was > 100 µM (inactive). For the same compound, the GI50 [46] was > 100 µM (inactive), the GI50 [48] was > 100 µM (inactive) and the GI50 [49] was > 100 µM (inactive). For the same compound, the GI50 [51] was > 100 µM (inactive), the GI50 [52] was > 100 µM (inactive) and the GI50 [53] was > 100 µM (inactive). The GI50 [54] was > 100 µM (inactive), the GI50 [55] was > 100 µM and the GI50 [56] was > 100 µM (inactive). For the same compound, the GI50 [57] was > 100 µM (inactive).

In the case of O=C1c2c(O)cc(O)cc2OC(c2ccc(O)cc2O)C1O (stereo unspecified), the GI50 [1] is reported as > 100 µM (inactive), the GI50 [2] is reported as > 100 µM (inactive) and the GI50 [4] is reported as > 100 µM (inactive). For the same compound, the GI50 [5] was > 100 µM (inactive), the GI50 [8] was > 100 µM (inactive) and the GI50 [11] was > 100 µM (inactive). For the same compound, the GI50 [14] was > 100 µM (inactive), the GI50 [17] was > 100 µM (inactive) and the GI50 [19] was > 100 µM (inactive). For the same compound, the GI50 [58] was > 100 µM (inactive), the GI50 [25] was > 100 µM (inactive) and the GI50 [37] was > 100 µM (inactive). For the same compound, the GI50 [39] was > 100 µM (inactive), the GI50 [43] was > 100 µM (inactive) and the GI50 [44] was > 100 µM (inactive). For the same compound, the GI50 [47] was > 100 µM (inactive), the GI50 [49] was > 100 µM (inactive) and the GI50 [51] was > 100 µM (inactive). The GI50 [52] was > 100 µM (inactive).
